The text below walks through data of ChEMBL document CHEMBL3792360, “Antibacterial activity of Mannich bases derived from 2-naphthols, aromatic aldehydes and secondary aliphatic amines” (2016).

≈ marks a conversion by molar mass, not a printed value. A value given as a limit tells only on which side of the number the result lay.

Format in all cases: functional
Assay [1] concerns Staphylococcus aureus. As to the kind of experiment: Antibacterial activity against Staphylococcus aureus […] after 16 to 20 hrs by broth microdilution method. (In general: Dilution methods test growth across graded concentrations, often in twofold steps.)
For a further assay, the system named is Klebsiella pneumoniae. As to the kind of experiment: Antibacterial activity against Klebsiella pneumoniae CIP 53153 after 16 to 20 hrs by broth microdilution method.
The test system of the next assay is Enterobacter cloacae. Nature of the assay: Antibacterial activity against Enterobacter cloacae CIP 103475 after 16 to 20 hrs by broth microdilution method.
A further assay relates to Citrobacter freundii. Nature of the assay: Antibacterial activity against Citrobacter freundii CIP 5732 after 16 to 20 hrs by broth microdilution method.
The subject of assay [2] is Escherichia coli. Nature of the assay: Antibacterial activity against Escherichia coli ATCC 35218 after 16 to 20 hrs by broth microdilution method.
The test system of assay [3] is Staphylococcus aureus. Nature of the assay: Antibacterial activity against methicillin-resistant Staphylococcus aureus ATCC 43300 after 16 to 20 hrs by broth microdilution method.
Assay [4] relates to Escherichia coli. Nature of the assay: Antibacterial activity against Escherichia coli ATCC 25922 after 16 to 20 hrs by broth microdilution method.
A further assay relates to Proteus vulgaris. Nature of the assay: Antibacterial activity against Proteus vulgaris CIP 104989 after 16 to 20 hrs by broth microdilution method.
The test system of the next assay is Enterococcus faecalis. Nature of the assay: Antibacterial activity against Enterococcus faecalis ATCC 25912 after 16 to 20 hrs by broth microdilution method.
The next assay deals with Pseudomonas aeruginosa. Nature of the assay: Antibacterial activity against Pseudomonas aeruginosa CIP 82118 after 16 to 20 hrs by broth microdilution method.

Broadly, the MIC is the smallest concentration in the dilution series that meets the test's criterion for growth inhibition. A high value points to a less susceptible organism. Take `CC1CCN(C(c2cccs2)c2c(O)ccc3ccccc23)CC1` (stereo not given): the minimal inhibitory concentration (MIC) was 8 mg/L (≈ 23.7 µM) in the assay with Staphylococcus aureus [1]; above 512 mg/L in the assay with Klebsiella pneumoniae; above 512 mg/L with Enterobacter cloacae; above 512 mg/L against Citrobacter freundii; above 512 mg/L with Escherichia coli [2]; 8 mg/L (≈ 23.7 µM) with Staphylococcus aureus [3]. Besides, the MIC was above 512 mg/L against Escherichia coli [4], above 512 mg/L with Proteus vulgaris, 16 mg/L (≈ 47.4 µM) with Enterococcus faecalis and above 512 mg/L in the assay with Pseudomonas aeruginosa.

Turning to `CC1CCN(C(c2cccc(Cl)c2)c2c(O)ccc3cc(Br)ccc23)CC1` (stereo not given), the MIC with Staphylococcus aureus [1], against Klebsiella pneumoniae, in the assay on Enterobacter cloacae, with Citrobacter freundii, with Escherichia coli [2] and with Staphylococcus aureus [3] was above 512 mg/L each time. Also, the MIC with Escherichia coli [4], against Proteus vulgaris, against Enterococcus faecalis and in the assay on Pseudomonas aeruginosa was above 512 mg/L each time.
